Results taken from PubChem BioAssay AID493182 (Sanford-Burnham Center for Chemical Genomics, 2011).

molecular target: Ubiquitin-conjugating enzyme E2 N (Homo sapiens) (UniProt P61088); assay: UBC13 polyubiquitination inhibitor potency, dose response, biochemical, TR-FRET, reconfirmation (AID 493182)
Sequence (P61088 whole entry, looked up): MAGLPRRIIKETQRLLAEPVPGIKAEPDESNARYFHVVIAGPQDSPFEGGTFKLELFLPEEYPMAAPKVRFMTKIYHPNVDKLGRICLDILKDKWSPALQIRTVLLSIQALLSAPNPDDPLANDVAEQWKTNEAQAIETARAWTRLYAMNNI

SMILES	IC50
Cc1ccc(N(C(=O)c2snc(C(N)=O)c2N)C(C(=O)NCC2CCCO2)c2c[nH]c3ccccc23)cc1 (configuration not stated)	12.1 µM
CCCCCCCCCCC[N+](C)(C)CC/C=C1/c2ccccc2Sc2ccc(Cl)cc21	4.77 µM
O=C(CSc1nc2ccsc2c(=O)n1Cc1ccc(C(=O)O)cc1)NCC1CCCO1 (configuration not stated)	17.3 µM
CCC[C@@H](CN1CCC[C@H]1CN1C(N)=NC[C@H]1CC(C)C)N1C[C@@H](Cc2ccccc2)N(CCc2ccc(Cl)c(Cl)c2)C1=N	12.6 µM
N#Cc1ccc(OCC(=O)NNC(=S)NC(=O)C2CC2)cc1	6.43 µM

Second part, the compound after the results:

IC50	SMILES
4.73 µM	C#CCOCCOCCOCCNc1nc(N2CCN(C(=O)CCCCCCCCCCNC(=O)[C@H](CCCCN)n3cc(CCO)nn3)CC2)nc(N2CCN(C(=O)CCCCCCCCCCNC(=O)[C@H](CCCCN)n3cc(CCO)nn3)CC2)n1
3.71 µM	C#CCOCCOCCOCCNc1nc(N2CCN(C(=O)C([C@@H](C)O)n3cc([C@@H](N)CCCCN)nn3)CC2)nc(N2CCN(C(=O)[C@H](CCCCN)n3cc(CN)nn3)CC2)n1 (some centres not stated)
